In US20080227801A1, “Pharmaceutical Compositions Containing Erythrina Mulungu Derivatives, Processes for their Production and Uses Thereof” (priority 2005, published 2008):
“And” between values parts separate entries of the source, which are not always exact repeats. Identical values can stand only once. “Also recorded” adds a separate entry of the source.

Experiments:
Assay type in all cases: in vivo, Swiss mice
[1] = tested on: house mice; test: Labyrinth in high T (elevated T maze) test; parameters: key to Escape: latency in seconds (maximum 300 s); conditions: for Escape / Inhibitory avoidance E1 / Inhibitory avoidance E2 / Inhibitory avoidance E3 / Inhibitory avoidance E4 / Inhibitory avoidance LB (basal latency): acute, mean ± EPM; for Anxiolytic effect in Labyrinth in high T (in words): 3 and 10 mg/kg, oral via
Procedure: Swiss mice weighing 25-35 g from the central animal laboratory of the Sao Paulo State University (UNESP/Araraquara) were used.
Accordingly, lyophilized hydroalcoholic extract (50, 100, 200 and 400 mg/kg) was used, in addition to F2 (3, 6, 10, 17 and 30 mg/kg) and the alkaloids erythrartine, erythravine and 11-OH-erythravine (3 and 10 mg/kg), administered via oral intake by gavage. The standard drug used was Diazepam (DZP) in a dose of 2 mg/kg (via intraperitoneal, i.p).
The Labyrinth in high T is made with transparent glass walls and wooden floor and consists of a closed arm (30×5×15 cm) perpendicularly linked to two open arms (30×5×0.25 cm), raised at 38.5 cm above the floor by a wooden support. In this test, five consecutive measures of inhibitory avoidance were performed (basal latency, avoidances 1, 2, 3 and 4) and one measure of escape from the open arms, with intervals of 30 seconds between each attempt. In the avoidance measures, the animals were placed in the distal section of the closed arm and the exit latency of this arm, on all four paws, towards the open arm was timed. In the escape measure, the animals were placed in the extremity of the right-hand open arm and the departure time from this arm was measured. The animals' maximum length of stay in the arms of the maze during these measures was 300 seconds. The apparatus was cleaned with ethanol 20% after testing each animal.
The results obtained from the Labyrinth in high T submitted to a two-way analysis of variance (ANOVA), with treatment being an independent factor and attempts being a dependent factor.

[2] = tested on: house mouse; test: Locomotion activity test in the arena
From the text: In order to avoid false positives or negatives, immediately after testing in the elevated T maze, the animals were submitted to the locomotive activity test in the arena.
The apparatus consists of a white polypropylene box with a rectangular base (40×48 cm), surrounded by 30 cm high walls. The floor is subdivided into 30 squares (8×8 cm).
In this test, the animals were placed in the center of the box and their activity was video recorded for five minutes, for subsequent analysis of the number of crossings of the quadrant areas and number of stretch-attend postures (WALSH and CUMMINS, 1976).
The results obtained with the arena were submitted to a one-way ANOVA followed by the Duncan post hoc test.

[3] = tested on: house mouse; test: Clear-dark (light/dark) transition model; conditions: for Number of transitions between two compartments / Time spent in illuminated compartment: acute, mean ± EPM; for Effect on time spent in illuminated compartment (in words): versus control; for Anxiolytic effect in clear-dark model transition (in words): oral via, doses of 3 and 10 mg/kg
[4] = 3 and 10 mg/kg oral, one-way ANOVA
[5] = 2 mg/kg i.p., acute, five minutes, mean ± EPM

`COc1cc2c(cc1OC)[C@]13C[C@@H](O)C=CC1=CCN3C[C@H]2O` [11-OH, 11-hydroxy-erythravine] was tested, and the Escape ([1]; 3 mg/kg oral) was 21.5 ± 3.7, the “Inhibitory avoidance E1” value ([1]; 3 mg/kg oral) was 41.8 ± 14.2 and the “Inhibitory avoidance E2” value ([1]; 3 mg/kg oral) was 96.0 ± 34.4. For the same compound, the “Inhibitory avoidance E3” value ([1]; 3 mg/kg oral) was 132.3 ± 39.7, the “Inhibitory avoidance E4” value ([1]; 3 mg/kg oral) was 194.4 ± 39.5 and the “Inhibitory avoidance LB (basal latency)” value ([1]; 3 mg/kg oral) was 30.7 ± 5.8. For the same compound, the Escape ([1]; 10 mg/kg oral) was 26.8 ± 4.8, the “Inhibitory avoidance E1” value ([1]; 10 mg/kg oral) was 30.0 ± 6.1 and the “Inhibitory avoidance E2” value ([1]; 10 mg/kg oral) was 54.0 ± 21.1. The “Inhibitory avoidance E3” value ([1]; 10 mg/kg oral) was 66.6 ± 30.3, the “Inhibitory avoidance E4” value ([1]; 10 mg/kg oral) was 94.8 ± 31.7 and the “Inhibitory avoidance LB (basal latency)” value ([1]; 10 mg/kg oral) was 22.6 ± 3.5. For the same compound, the “Anxiolytic effect in Labyrinth in high T (in words)” value (from here on “Anxiolytic effect in Labyrinth”) [1] was “anxiolytic effect”, the “Response on the locomotion activity test at the arena (in words)” value ([2]; 3 mg/kg) was “did not have an increase of the response” and the “Number of transitions between two compartments” value ([3]; 3 mg/kg oral) was 22.67 ± 2.66. The “Time spent in illuminated compartment” value ([3]; 3 mg/kg oral) was 98.67 ± 13.35, the “Number of transitions between two compartments” value ([3]; 10 mg/kg oral) was 14.00 ± 1.93 and the “Time spent in illuminated compartment” value ([3]; 10 mg/kg oral) was 127.22 ± 21.83. The “Effect on number of transitions between two compartments (in words)” value (“Effect on number” for short) ([3]; dose of 3 mg/kg, P<0.05, listed as 11-hidroxi-erhytravine, 3 mg/kg) was “increased the transitions”, the “Effect on number” value ([3]; dose of 3 mg/kg, P<0.05, listed as 11-hidroxi-erythravine, 3 mg/kg) was “increased” and the “Effect on time spent in illuminated compartment (in words)” value (shortened to “Effect on time spent”) ([3]; dose of 10 mg/kg, listed as 11-hidroxi-erhytravine, 10 mg/kg) was “anxiolytic effect”. For the same compound, the “Effect on time spent” value ([3]; dose of 10 mg/kg, listed as 11-hidroxi-erythravine, 10 mg/kg) was “increased expressively” and the “Anxiolytic effect in clear-dark model transition (in words)” value [3] was “anxiolytic effect”.
With `COc1cc2c(cc1OC)[C@]13C[C@@H](O)C=CC1=CCN3CC2` [ERI, erythravine] the “Anxiolytic effect in Labyrinth” value [1] was “anxiolytic effect”, the “Number of transitions between two compartments” value ([3]; 3 mg/kg oral) was 19.70 ± 2.96 and the “Time spent in illuminated compartment” value ([3]; 3 mg/kg oral) was 115.40 ± 18.58. For the same compound, the “Number of transitions between two compartments” value ([3]; 10 mg/kg oral) was 19.80 ± 1.32, the “Time spent in illuminated compartment” value ([3]; 10 mg/kg oral) was 112.00 ± 10.95 and the “Effect on number” value [3, 4] was “did not show significant differences between groups”. For the same compound, the “Effect on time spent” value ([3]; oral doses of 3 mg/kg and 10 mg/kg) was “expressively greater; also recorded: anxiolytic effect” and the “Anxiolytic effect in clear-dark model transition (in words)” value [3] was “anxiolytic effect”.
In the case of `COc1cc2c(cc1OC)[C@]13C[C@@H](OC)C=CC1=CCN3C[C@H]2O` [ERIT, erythrartine], the “Anxiolytic effect in Labyrinth” value [1] is reported as “anxiolytic effect”, the “Number of transitions between two compartments” value ([3]; 3 mg/kg oral) is reported as 13.00 ± 1.56 and the “Time spent in illuminated compartment” value ([3]; 3 mg/kg oral) is reported as 67.67 ± 8.33. The “Number of transitions between two compartments” value ([3]; 10 mg/kg oral) was 14.25 ± 1.59, the “Time spent in illuminated compartment” value ([3]; 10 mg/kg oral) was 83.42 ± 14.17 and the “Effect on number” value [3, 4] was “did not show signified effect”.
For `CN1C(=O)CN=C(c2ccccc2)c2cc(Cl)ccc21` [DZP, Diazepam, reference compound], the Escape ([1]; 2 mg/kg i.p.) was 19.0 ± 3.2 and 28.4 ± 7.1 and 27.1 ± 4.6, the “Inhibitory avoidance E1” value ([1]; 2 mg/kg i.p.) was 15.3 ± 3.8 and 19.1 ± 4.0 and 11.4 ± 1.4 and the “Inhibitory avoidance LB (basal latency)” value ([1]; 2 mg/kg i.p.) was 24.6 ± 4.1 and 25.4 ± 4.1 and 25.6 ± 5.9. The Mixings [2, 5] was 167.4 ± 23.6 and 169.11 ± 33.2, the Raisings [2, 5] was 27.33 ± 2.3 and 21.11 ± 6.7 and the “Number of transitions between two compartments” value ([3]; 2 mg/kg i.p.) was 20.10 ± 2.93 and 13.92 ± 1.34 and 17.42 ± 2.40. The “Time spent in illuminated compartment” value ([3]; 2 mg/kg i.p.) was 144.20 ± 17.52 and 130.00 ± 16.76 and 140.67 ± 18.59 and the “Effect on time spent” value ([3]; DZP 2 mg/kg) was “expressively greater; also recorded: increased expressively; also recorded: observed only for the animals group treated with DZP”.
